Legend:
[1] = system: hEPO mRNA; assay: hEPO expression after subcutaneous administration to mice; type: in vivo, CD-1 mice; conditions: 6 hr. time point, relative to MC3
Procedure: The numbers 1-11 in this figure correspond to MC3, PBS, and Compounds 18, 25, 48, 49, 111, 60, 168, 207, and 233, respectively.
FIG. 27 is a graph showing the hEPO mRNA expression in CD1-mice measured 3 h (left block), 6 h (middle block) and 24 h (right block) after subcutaneous administration of various nanoparticle compositions at 0.5 mpk. Numbers 1-9 refer to compositions containing an mRNA expressing hEPO and the following: 1: PBS, 2: Compound 18, 3: Compound 30; 4: Compound 96; 5: Compound 151; 6: Compound 98; 7: Compound 163; 8: Compound 164; 9: Compound 165.

[2] = Complement activation indicators in non-human primates; type: in vivo
Procedure: The tolerability and efficacy of nanoparticle compositions to non-human primates was also investigated using a sample formulation including Compound 18. The formulation was prepared according to the standard MC3 formulation described above and included an hEPO mRNA. Primates were administered a single dose of 0.05 (Group 1), 0.3 (Group 2), or 1.0 (Group 3) mpk via intravenous infusion for 60 minutes. Three primates were administered each dose. Expression of hEPO was measured prior to dosing and at 2, 6, 24, 48, and 96 hours post-treatment (Table 26). Table 28 includes levels of indicators of complement activation, while Table 29 includes cytokine induction data.

[3] = Metabolite identification of Compound 18 incubated with human plasma; type: in vitro ADME; set-up: key to Detection at 0 min / Detection at 30 min / Detection at 60 min / Detection at 90 min: +: Detected; ND: Not detected
Procedure: Metabolite Identification: Compound 18 (10 μM) was incubated with human plasma (29.0 mg protein/incubation) in incubation mixtures (200 μL final incubation volume) that consisted of 50/50 v/v neat plasma (undiluted)/substrate solution in 50 mM phosphate buffer, pH 7.4). The plasma was obtained from male and female donors and contained K2EDTA anticoagulant. Reactions were started by addition of the substrate solution to human plasma and were stopped at four designated time points (0, 30, 60 and 90 min) by the addition of 600 μL of stop reagent (acetonitrile). Stopped incubation samples were centrifuged (e.g., 10,000×g for 10 min at 10° C.) and the supernatant fractions were analyzed by LC-MS/MS to characterize the metabolites formed from compound 18. Additional incubations were performed with the positive control procaine […] to establish competency of the test system. Samples were analyzed by LC-MS/MS.
In vitro metabolite identification studies using compound 18 were also performed. […] The disappearance of parent compound 18 and the primary metabolite, compound 166, from mouse liver tissue was measured after dosing 0.25 mg/kg mRNA on days 1, 8, and 15.

[4] = system: female CD-1 mice; assay: Luciferase expression after subcutaneous administration of lipid/mRNA formulations (whole body BLI); type: in vivo; conditions: 0.5 mpk
Procedure: The effect of the lipids of the disclosure on protein expression upon subcutaneous administration was studied. Formulations containing lipids of the disclosure and an mRNA expressing luciferase or hEPO were administered subcutaneously to female CD-1 mice at 0.5 mpk. Expression levels were obtained via whole body luminescent imaging (BLI) at 3, 6 and 24 hours after injection and expression levels in liver, spleen and at the injection site were evaluated ex vivo after 24 hours. […] See also Tables 35 and 36, and FIGS. 19 and 27.
Table 35 summarizes the luciferase expression levels using various nanoparticle compositions of the disclosure, and the luciferase expression levels using various nanoparticle compositions 6f the disclosure as compared to the luciferase expression level using an MC3 formulation after subcutaneous administration, as described above.

[5] = system: hEPO mRNA; assay: Pretreatment study (methotrexate or dexamethasone) with MC3 formulation in Cynomolgus monkeys; type: in vivo; conditions: once weekly for four weeks, absence of any pretreatment
From the text: In order to combat negative effects, nanoparticle compositions are co-administered with one or more substances (e.g., co-medications or additional therapeutic and/or prophylactics) to subjects. Potentially useful additional therapeutic and/or prophylactics include steroids (e.g., corticosteroids), anti-histamines, H1 receptor blockers, H2 receptor blockers, anti-inflammatory compounds, statins, BTK inhibitors, S1P1 agonists, glucocorticoid receptor modulators (GRMs), and estradiols. Non-human primates are pretreated with one or more additional therapeutic agents selected from dexamethasone and acetaminophen. The additional therapeutic agent is administered either 24 hours, 1 hour, or both 24 hours and 1 hour before administration of a nanoparticle composition. Cytokine profiles, inflammation, and other parameters are measured and compared to evaluate the effectiveness of pretreatment
The effects of pretreatment to non-human primates were evaluated using a standard MC3 formulation including an mRNA encoding hEPO. Male monkeys were administered the nanoparticle composition once weekly for four weeks at a dose rate of 5 ml/kg/h and were pretreated with either methotrexate or dexamethasone.
As shown, in the absence of any pretreatment, maximal expression levels decreased nearly 70% over the course of the study.

For `CCCCCCCCCOC(=O)CCCCCCCN(CCO)CCCCCCCC(=O)OC(CCCCCCCC)CCCCCCCC` [Compound 18, Heptadecan-9-yl 8-((2-hydroxyethyl)(8-(nonyloxy)-8-oxooctyl)amino)octanoate], the “Novel lipid/MC3 expression ratio, s.c. hEPO 0.5 mpk” value [1] was 4.26, the Bb fragment ([2]; Group 1 (0.05 mpk), 2 h) was 5341 ng/mL and the C5b9 ([2]; Group 1 (0.05 mpk), 2 h) was 1959 ng/mL. For the same compound, the Bb fragment ([2]; Group 1 (0.05 mpk), 6 h) was 3037 ng/mL, the C3a ([2]; Group 1 (0.05 mpk), 6 h) was 12385 ng/mL and the C5b9 ([2]; Group 1 (0.05 mpk), 6 h) was 786 ng/mL. It also gave a Bb fragment ([2]; Group 1 (0.05 mpk), 24 h) of 1496 ng/mL, a C3a ([2]; Group 1 (0.05 mpk), 24 h) of 11596 ng/mL and a Bb fragment ([2]; Group 1 (0.05 mpk), Day 5) of 1273 ng/mL. For the same compound, the C3a ([2]; Group 1 (0.05 mpk), Day 5) was 11945 ng/mL, the Bb fragment ([2]; Group 1 (0.05 mpk), Predose) was 1375 ng/mL and the C5b9 ([2]; Group 1 (0.05 mpk), Predose) was 169 ng/mL. The Bb fragment ([2]; Group 2 (0.3 mpk), 2 h) was 5356 ng/mL, the C5b9 ([2]; Group 2 (0.3 mpk), 2 h) was 393 ng/mL and the Bb fragment ([2]; Group 2 (0.3 mpk), 6 h) was 7157 ng/mL. It also gave a C3a ([2]; Group 2 (0.3 mpk), 6 h) of 32436 ng/mL, a C5b9 ([2]; Group 2 (0.3 mpk), 6 h) of 1333 ng/mL and a Bb fragment ([2]; Group 2 (0.3 mpk), 24 h) of 3680 ng/mL. It also gave a C3a ([2]; Group 2 (0.3 mpk), 24 h) of 19721 ng/mL, a Bb fragment ([2]; Group 2 (0.3 mpk), Day 5) of 2400 ng/mL and a C3a ([2]; Group 2 (0.3 mpk), Day 5) of 16207 ng/mL. For the same compound, the Bb fragment ([2]; Group 2 (0.3 mpk), Predose) was 1461 ng/mL, the C5b9 ([2]; Group 2 (0.3 mpk), Predose) was 157 ng/mL and the Bb fragment ([2]; Group 3 (1.0 mpk), 2 h) was 8849 ng/mL. The C5b9 ([2]; Group 3 (1.0 mpk), 2 h) was 801 ng/mL, the Bb fragment ([2]; Group 3 (1.0 mpk), 6 h) was 12820 ng/mL and the C3a ([2]; Group 3 (1.0 mpk), 6 h) was 51996 ng/mL. It also gave a C5b9 ([2]; Group 3 (1.0 mpk), 6 h) of 2928 ng/mL, a Bb fragment ([2]; Group 3 (1.0 mpk), 24 h) of 8601 ng/mL and a C3a ([2]; Group 3 (1.0 mpk), 24 h) of 35843 ng/mL. For the same compound, the Bb fragment ([2]; Group 3 (1.0 mpk), Day 5) was 2834 ng/mL, the C3a ([2]; Group 3 (1.0 mpk), Day 5) was 19101 ng/mL and the Bb fragment ([2]; Group 3 (1.0 mpk), Predose) was 1529 ng/mL. The C5b9 ([2]; Group 3 (1.0 mpk), Predose) was 238 ng/mL, the “Detection at 0 min” value ([3]; Compound 18 (10 μM), human plasma (29.0 mg protein/incubation), 0 min) was “+” and the “Detection at 30 min” value ([3]; Compound 18 (10 μM), human plasma, 30 min) was “+”. For the same compound, the “Detection at 60 min” value ([3]; Compound 18 (10 μM), human plasma, 60 min) was “+”, the “Detection at 90 min” value ([3]; Compound 18 (10 μM), human plasma, 90 min) was “+” and the “initial step of metabolism” value ([3]; in vitro metabolite identification studies) was “hydrolysis of the primary ester”.
For `CCCCCC=CCC=CCCCCCCCCC(CCCCCCCCC=CCC=CCCCCC)OC(=O)CCCN(C)C` (stereo not drawn) [MC3, heptatriaconta-6,9,28,31-tetraen-19-yl 4-(dimethylamino)butanoate, reference compound], the “Lipid/MC3 AUC ratio (luciferase)” value [4] was 1, the “Luciferase expression AUC” value ([4]; BLI at 3, 6 and 24 hours) was 1.7127E+10 (p/s)*h and the “Decrease of maximal expression levels over the course of the study” value [5] was about 70%.

From patent US10857105B2, “Compounds and compositions for intracellular delivery of therapeutic agents” (ModernaTX, Inc., priority 2017, dated 2020)
